PMC10755729, “A Multiplexing Activity-Based Protein-Profiling Platform for Dissection of a Native Bacterial Xyloglucan-Degrading System” (ACS Central Science, 2023)

How the values were obtained:
[1] = molecular target: T1, CjXyl39A; Xyl39A (Cellvibrio japonicus, UniProt B3PD50); test: fluorogenic activity assay on 4MU glycosides; assay type: biochemical; conditions: recombinant enzyme
T1 construct: recombinant, produced in E. coli (native in the pull-down)
T1 sequence (B3PD50 24-521): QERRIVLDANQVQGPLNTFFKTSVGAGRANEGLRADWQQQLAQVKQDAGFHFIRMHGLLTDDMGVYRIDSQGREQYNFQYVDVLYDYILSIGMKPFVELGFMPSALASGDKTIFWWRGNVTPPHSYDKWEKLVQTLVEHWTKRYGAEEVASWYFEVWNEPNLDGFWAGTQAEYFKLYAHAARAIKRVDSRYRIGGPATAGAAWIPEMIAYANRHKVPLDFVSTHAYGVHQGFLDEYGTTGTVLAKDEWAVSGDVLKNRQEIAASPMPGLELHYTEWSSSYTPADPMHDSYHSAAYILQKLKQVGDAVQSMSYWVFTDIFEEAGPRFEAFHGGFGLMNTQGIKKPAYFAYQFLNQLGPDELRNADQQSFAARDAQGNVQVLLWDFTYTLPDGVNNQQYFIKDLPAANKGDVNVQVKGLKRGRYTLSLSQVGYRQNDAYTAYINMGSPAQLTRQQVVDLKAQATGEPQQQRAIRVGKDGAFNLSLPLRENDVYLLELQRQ

[2] = molecular target: T2, CjCel5B (Cellvibrio japonicus, UniProt B3PCS3); test: fluorogenic hydrolysis kinetics; assay type: biochemical; conditions: 4MU release
T2 construct: gene cel5B; recombinant, produced in E. coli; native protein has N-terminal catalytic domain, serine-rich linker and C-terminal domain; borders of construct only in supplement
T2 sequence (B3PCS3 38-570): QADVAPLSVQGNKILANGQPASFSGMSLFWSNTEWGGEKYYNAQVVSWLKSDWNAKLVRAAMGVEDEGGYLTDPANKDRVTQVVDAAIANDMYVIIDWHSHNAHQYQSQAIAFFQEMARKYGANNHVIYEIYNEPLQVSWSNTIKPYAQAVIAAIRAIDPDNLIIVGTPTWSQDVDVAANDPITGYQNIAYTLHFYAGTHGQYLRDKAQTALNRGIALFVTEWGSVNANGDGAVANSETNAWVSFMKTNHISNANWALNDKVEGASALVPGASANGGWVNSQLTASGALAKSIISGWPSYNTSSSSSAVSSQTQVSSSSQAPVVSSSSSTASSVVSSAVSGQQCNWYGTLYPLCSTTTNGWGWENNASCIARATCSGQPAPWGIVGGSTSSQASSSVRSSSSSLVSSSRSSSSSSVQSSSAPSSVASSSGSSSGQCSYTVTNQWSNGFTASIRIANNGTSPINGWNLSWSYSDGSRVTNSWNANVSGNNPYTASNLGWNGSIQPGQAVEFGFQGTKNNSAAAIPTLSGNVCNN

SMILES	activity [1]	hydrolysis kinetics [2]
Cc1cc(=O)oc2cc(O[C@@H]3OC[C@@H](O)[C@H](O)[C@H]3O)ccc12 [4-methylumbelliferyl (4MU) glycoside of β-D-xylose]	showed specific recognition of β-D-xylose over other glycosides	
Cc1cc(=O)oc2cc(O[C@@H]3O[C@H](CO)[C@@H](O[C@@H]4O[C@H](CO[C@H]5OC[C@@H](O)[C@H](O)[C@H]5O)[C@@H](O[C@@H]5O[C@H](CO[C@H]6OC[C@@H](O)[C@H](O)[C@H]6O)[C@@H](O[C@@H]6O[C@H](CO[C@H]7OC[C@@H](O)[C@H](O)[C@H]7O)[C@@H](O)[C@H](O)[C@H]6O)[C@H](O)[C@H]5O)[C@H](O)[C@H]4O)[C@H](O)[C@H]3O)ccc12 [4MU-XXXG]		Kinetics for the hydrolysis of 4MU-XXXG and commercially available 4MU-cellotetraose were measured
